Results from a melting point compilation (Tetko et al.; mined from patent text by program, amines drawn as free bases though some values may be those of a salt).

melting point [°C]	SMILES
87 to 89	C=C(OC(=O)c1ccc(C(C)(C)C)cc1)c1ccc(OC)cc1
151 to 154	CN(C)CCNC(=O)c1ccc(OCc2ccc(-c3ccccc3)cc2)nc1
111 to 113	COC(=O)CCCCC(=O)N(O)c1ccc2ccccc2c1O
184 to 185	O=C1Nc2cccc(-c3ccccc3)c2/C1=C/c1ccc[nH]1
180 to 182	CC(C(=O)O)c1ccc2c(c1)Cc1ccccc1-2 (stereo unspecified)
190 to 192	CC1CSC2=C(O1)c1cc(-c3ccccc3)ccc1C(=O)C2=O (stereo unspecified)
150 to 151	CCN(CC)CCOc1ccc(Nc2ncc3c(n2)N(C)C(=O)N(c2ccccc2Cl)C3)cc1
149 to 151	CCC(OC(=O)C1CC1)c1ccc(Cl)c2nc3n(c12)CCCN3c1ccc(OC)nc1C (stereo unspecified)
307	Cc1nc2c3c(ccc2n1C)[C@H]1OCCO[C@@H]1[C@@H](c1ccccc1)O3
79 to 81	COC(=O)c1ccc(OC)c(Nc2ccccc2)c1
> 300	O=C1NC(=O)c2ccccc2/C1=C/Nc1ccc2cn[nH]c2c1
87 to 89	COC(=O)c1cn(Cc2ccccc2F)cn1
190	O=[N+]([O-])c1cc2ccccc2nc1Nc1ccc(O)cc1
116	Cc1cccc(-c2ccccc2NC(=N)N(C)C)c1
169 to 171	O=C1N(Cc2ccc3nonc3c2)c2ccccc2C12COc1cc3c(cc12)CCO3 (stereo unspecified)
153 to 155	COc1ccc(C(=O)N[C@H]2CCN(C)C[C@H]2c2ccccc2)cc1OC (relative stereo)
225 to 226	COc1nccc(-c2c(-c3ccc(F)cc3)ncn2C2CCC(O)(CO)CC2)n1 (stereo unspecified)
85 to 87	Nc1ccc(C2CCc3ccccc3O2)cc1 (stereo unspecified)
150 to 160	Cc1nc(-c2ccc(C#N)cc2)sc1C(=O)N1CCO[C@@](Cn2cncn2)(c2ccc(F)cc2F)[C@H]1C
185 to 190	CCc1ccc2c(-c3cnc4[nH]cc(C(=O)N[C@H](C)C(=O)N5CC(C#N)C5)c4n3)nn(C)c2c1
95 to 97	O=Cc1cnc(-c2ccccc2Cl)s1
329 to 330	O=c1[nH]c2cccnc2c2nc(-c3ccccc3)cn12
260 to 262	O=C1CCC(N2C(=O)c3cccc(NC(=O)c4cccc(F)c4)c3C2=O)C(=O)N1 (stereo unspecified)
141 to 143	Cc1cccc2c1C=Cc1ccccc1C2(O)CCCN(C)C (stereo unspecified)
147 to 148	Cc1noc(NC(=O)N2CCN(c3cncc(-c4ccc(F)cc4F)c3)CC2)c1C
108 to 110	CCOC(=O)c1cc2cc(-c3ccc(Cl)cc3)ccc2o1
160 to 162	Nc1ccc(-c2nc3ccccc3s2)cc1Cl

melting point [°C]	SMILES
234 to 235	CCCCCC(=O)Nc1ccc2scc(Cc3ccc(C(=O)O)cc3OC)c2c1
194	CCN1CC(C(=O)N2CCOCC2)Cc2cccc(CSc3nc4ccccc4[nH]3)c21 (stereo unspecified)
227 to 231	O=c1c2c(Cc3ccc(C(F)(F)F)cc3)n[nH]c2c2cccnc2n1-c1cccc(OC(F)(F)F)c1
> 300	COc1ccc(-c2[nH]nc3c2C(=O)c2c(NC(=O)CN4CCC(N(C)C)CC4)cccc2-3)cc1
128 to 130	COc1ccc(S(=O)(=O)C(CC(=O)NO)Cc2ccc(OCc3ccccc3)cc2)cc1 (stereo unspecified)
93 to 98	CC(=O)N(O)Cc1ccccc1Nc1cccc(C)c1C
129	Cc1c(NC(=O)c2ccc(OCC3CCOC3)cc2)ccc2cc(CNCC(C)(C)C)cnc12 (stereo unspecified)
173 to 177	O=Cc1cc2ccc3ccsc3c2c2ccccc12
64 to 65	CCN(CC)CCOc1ccc(C(O)(CC)c2cccc(Cl)c2)cc1 (stereo unspecified)
130 to 133	CC(C)c1nn(-c2ncccn2)c(-c2ccc(F)cc2)c1Br
99 to 102	COc1ccc(-c2cc(C(C)(C)CC(C)(C)C)cc(-n3nc4ccc(C(F)(F)F)cc4n3)c2O)cc1
124	COC(=O)c1ccc(Sc2ccccc2)cc1Sc1ccccc1
159 to 160	Cc1ccc(-c2ccc3c(=O)ccoc3c2)cc1
103 to 105	OCCN1CCN(c2cc(Cl)nc(-c3ccccc3)n2)CC1
212 to 214	CCCOc1ccccc1-c1nc2nc(NCC(C)O)ncc2c(=O)[nH]1 (stereo unspecified)
128 to 130	Cc1cccc(-c2ccc(C(=O)N3Cc4cccn4Cc4ccccc43)cc2)c1
136	CN1C(=O)N2CCOC2(c2ccccc2)c2cc([N+](=O)[O-])ccc21 (stereo unspecified)
105 to 106	COc1ccc(N2CCN(CCC3OCCc4c(Br)cccc43)CC2)cc1 (stereo unspecified)
150 to 160	O=C(NCCN1CCOCC1)Nc1nc2ccc(OC(c3c(Cl)cccc3Cl)C(F)(F)F)cc2s1 (stereo unspecified)
107 to 109	CN(CCc1cn(C(=O)OCc2ccccc2)c2ccc([N+](=O)[O-])cc12)C(=O)C(F)(F)F
141 to 143	Cc1nc(-c2ccccc2)cc(-c2ccc(C#N)o2)c1C(=O)NCCN1CCOCC1
70 to 72	CC1(c2ccc(F)cc2)OC(C=Cc2ccccn2)=CC1=O (stereo unspecified)
105 to 107	Brc1ccc(NN=C(Cc2ccco2)c2ccccc2)nc1
158 to 160	CC(=O)OCc1csc(Nc2ccc(Oc3ccccc3)cn2)n1
108 to 109	COc1ccc(CCCn2ccnc2S)cc1
119 to 120	CC(C#N)(COc1ccc(Cl)cc1)S(=O)(=O)Cc1ccc(Cl)cc1 (stereo unspecified)
195 to 196	Cc1nn(-c2ccc(C(F)(F)F)cn2)cc1COc1ccc(CCC(=O)O)cc1

Continued, compound first:

SMILES	melting point [°C]
CCS(=O)(=O)N(C(C)=O)c1cc(-c2ncnc(C(F)F)c2Cl)c(F)cc1C#N	123 to 124
C1=Nc2cccc(-c3ccoc3)c2C12COc1cc3c(cc12)OCO3 (stereo unspecified)	270 to 272
COc1cccc(-c2cnc(C#N)c(C#N)n2)c1	139 to 140
CCOC(=O)C1=C(C)Nc2ccnc(OC(C)C)c2C1c1cccc2c1OCO2 (stereo unspecified)	156 to 158
N#CC1CC2CC2N1C(=O)C(N)C12CC3CC(CC(O)(C3)C1)C2 (stereo unspecified)	105 to 108
CN1CCCCC1COC(=O)Nc1cccc(Br)c1 (stereo unspecified)	67.3 to 68.1
O=C(CCC(O)c1ccccc1)NCc1ccccc1 (stereo unspecified)	92 to 94
CN1CCN(c2nn(CC3CC3)c3ccccc23)CC1	68 to 70
OC1CCc2cc(Cl)c(Cl)cc2C1 (stereo unspecified)	103 to 105
OCCON=Cc1cncc(-c2ccccc2)c1	102 to 104
COc1c(C)cc(C(=O)c2ccc(Cl)cc2)c(OC)c1OC	99.5 to 100
CSc1ccc(N2CC=C(c3cccc(C)c3)CC2)nn1	130
O=C1CCCN1CCCN=c1sc2ccc(Cl)cc2s1	97 to 97.5
C=Cc1cnc(NC(=O)C(C)C)nc1	110 to 112
CC(C)C(NC(=O)CN1C=Cc2c([nH]c3c(C(=O)O)cccc23)C1)C(=O)C(F)(F)F (stereo unspecified)	260 to 262
Fc1cccc2c1C1=NCCN1C(Cl)=N2	281 to 285
N#CSCC(I)=C(I)CCl	76 to 78
CC(C)=CC=C(C#N)c1ccccc1	66 to 67
Cc1cc(C)n(Cc2ccc(Cl)cc2Cl)c1C=O	88 to 89
CC(C)(C)CC(C)(C)c1ccc(OS(=O)(=O)c2ccc(C(C)(C)C)cc2)cc1	68 to 71
O=C(O)C=CC(=O)Oc1ccccc1	127 to 128
COC(=O)C(C)(Cc1ccc(Cl)nc1)C(=O)OC	80 to 81
CC(C)(C)c1ccc(C2C=C(c3ccccc3)NN2c2ccccc2)cc1 (stereo unspecified)	150 to 153
Nc1nc(NC2CCC(CO)C2)c2ncn(C3C=CC(CO)C3)c2n1 (stereo unspecified)	177 to 180
CC(C)(C)c1cc(-c2cn3ccsc3n2)cc(C(C)(C)C)c1O	184 to 185
CNC(=S)[C@]1(c2cccnc2)CCCC[C@H]1NOCc1c(F)c(F)c(F)c(F)c1F	57 to 60

SMILES	melting point [°C]
CCCCCCCCCCCCCCCCCCSC(=O)Nc1ccc(NC(=O)NS(=O)(=O)c2ccc(OC)cc2)cc1	195
CCCCCCCCCCCCCCC(C)C(=O)O (stereo unspecified)	44 to 46
Nc1cccc2c1S(=O)(=O)CC2	117 to 119
O=C(O)c1c(C(F)(F)F)ccc(Cl)c1Cl	88 to 89
COC(CC(=O)O)C(O)=Nc1cc(Cl)cc(Cl)c1 (stereo unspecified)	125 to 126
COc1cc(C=C(C#N)C(=O)Nc2cccc(Cl)c2)cc(Cl)c1O	225 to 226
Fc1ccc2c(c1)CC(CN1CCC(c3noc4cc(F)ccc34)CC1)O2 (racemic)	129 to 130
N#Cc1[nH]c2ccc(C(O)(C(F)(F)F)C(F)(F)F)cc2c1-c1ccccc1	247 to 249
O=C(Cc1ccccc1)Oc1cc(=O)n(-c2ccccc2)c2ncccc12	179 to 180
N#Cc1cc2c(cc1Br)nc1n2CCC1	224
CSc1cc(C(=O)CBr)ccc1C	85 to 86
FC(F)(F)Oc1ccc2cnn(SC(Cl)(Cl)Cl)c2c1	45
FC(F)(F)c1n[nH]c(C(F)(F)F)n1	74 to 75
CNC(=O)Nc1ccc(O)cc1	169 to 171
NC(Cc1c(Cl)cccc1Cl)=NO	172 to 173
CCc1cc(=O)n(-c2cc(C(=O)OC(C)C)c(Cl)cc2F)c(=O)[nH]1	121 to 124
C=CC1CN(S(=O)(=O)c2ccc(C)cc2)CCN1S(=O)(=O)c1ccc(C)cc1 (stereo unspecified)	177 to 178
CNC(=O)N(C)c1nc(CC(=O)Nc2nnc(C(C)(C)C)s2)cs1	175 to 177
OCc1cc(Cc2ccccc2)cs1	33 to 34
N#CCc1ccc(Cl)nc1	80
NC(=NO)c1nn([C@@H]2O[C@H](CO)[C@@H](O)[C@H]2O)c2ncnc(N)c12	242 to 244
Clc1cc(OC(Cl)(Cl)Cl)nc(Cl)n1	55 to 56
Cc1c(-c2ccc(OC(F)F)c(OC3CC3)c2)[nH]c2cn[nH]c(=O)c12	245 to 246
COC(=O)Cc1c(Cl)nc(C)nc1Cl	67 to 68
CCOC(=O)COc1ccc([N+](=O)[O-])cc1C(F)(F)F	45 to 46
O=[N+]([O-])c1ccc(Cn2ccnn2)cc1	112 to 113
